details: not given

Row | SMILES | boiling point [°C] | log10 vapour pressure (mmHg) | melting point [°C] | ready biodegradability | log10 Koc (L/kg) | log10 Henry constant (atm·m³/mol) | log10 Koa | log10 biodegradation half-life (days)
1 | CC(O)CC(C)(C)O (configuration not stated) | 198 | -1.89 | -50 | readily biodegradable | – | – | – | –
2 | O=C(O)c1ccc(NC(=O)[C@H](Cc2ccc(O)cc2)NC(=O)c2ccccc2)cc1 | – | – | 241 | – | – | – | – | –
3 | CCN(CC)c1cccc(O)c1 | 276 | – | 78 | – | – | – | – | –
4 | CCC(=O)Cl | 80 | – | -94 | – | – | – | – | –
5 | O=P(OCCCl)(OCCCl)OCCCl | 330 | -1.21 | -35 | not readily biodegradable | – | – | – | –
6 | ClCC(Cl)=C(Cl)Cl | 167 | 0.428 | – | – | – | – | – | –
7 | C=CC1CO1 (configuration not stated) | 68 | – | -135 | – | – | – | – | –
8 | Cc1cccc(Nc2ccccc2C(=O)O)c1C | – | – | 230 | – | – | – | – | –
9 | Nc1ccn([C@@H]2O[C@H](COP(=O)(O)O)[C@@H](O)[C@@H]2O)c(=O)n1 | – | – | 233 | – | – | – | – | –
10 | COc1cc2ccc(=O)oc2cc1OC | – | – | 146 | – | – | – | – | –
11 | Clc1cc(Cl)c2c(c1Cl)Oc1c(Cl)cc(Cl)c(Cl)c1O2 | – | -10.3 | 238 | – | – | – | – | –
12 | Cc1ccc(NC(=S)Nc2ccc(C)cc2)cc1 | – | – | 183 | – | – | – | – | –
13 | O=C(O)Cc1ccccc1Oc1ccc(Cl)cc1Cl | – | – | 112 | – | – | – | – | –
14 | C=C(C)OC | 35 | 2.71 | – | – | – | – | – | –
15 | C=CCc1ccc(O)c(OC)c1 | 253 | -1.65 | -9.1 | – | – | – | – | –
16 | CCCCc1ccncc1 | 209 | – | – | – | – | – | – | –
17 | CCCCC(CC)COC(=O)c1ccc(C(=O)OCC(CC)CCCC)cc1 (configuration not stated) | 383 | – | -48 | – | 4.16 | – | – | –
18 | CCOC(=O)CCCCCC(=O)OCC | 254 | -2.51 | -24 | – | – | – | – | –
19 | Clc1ccc2ccccc2c1 | 256 | -1.91 | 61 | – | – | -3.49 | 5.8 | –
20 | OCc1cc(O)ccc1O | – | – | 100 | – | – | – | – | –
21 | Cn1ccnc1 | 196 | – | -6 | – | – | – | – | –

Row | SMILES | boiling point [°C] | log10 vapour pressure (mmHg) | melting point [°C] | ready biodegradability | log10 Koc (L/kg) | log10 Henry constant (atm·m³/mol) | log10 Koa | log10 biodegradation half-life (days)
22 | CCCCC(C)CCC (configuration not stated) | 142 | 0.835 | -113 | – | – | – | – | 0.699
23 | ClC=CCCl (mixture of isomers) | 109 | – | -50 | – | 1.67 | -2.62 | – | –
24 | CCCCCC(C)C | 118 | 1.32 | -109 | – | – | – | – | 0.477
25 | CCCC | – | 3.26 | -138 | readily biodegradable | – | – | 1.53 | –
26 | O=C(O)Cc1cccc2ccccc12 | – | – | 135 | not readily biodegradable | 2.2 | – | – | –
27 | CCCCCCCC(=O)OC(C)C | – | -0.963 | – | – | – | – | – | –
28 | CC=C(C)C(C)(C)C | 112 | – | – | – | – | – | – | –
29 | CCOC(=O)C(=O)C(=O)OCC | 210 | – | -30 | – | – | – | – | –
30 | O=C(O)c1cccc(Br)c1 | – | -4.04 | 155 | – | – | – | – | –
31 | COc1ccc(Cl)cc1C(=O)NCCc1ccc(S(=O)(=O)NC(=O)NC2CCCCC2)cc1 | – | – | 169 | – | – | – | – | –
32 | CCC(C)C(CC)CC (configuration not stated) | 140 | – | – | – | – | – | – | –
33 | CCCCCCCCCCCCCCCC(=O)O | 352 | -6.42 | 61.8 | readily biodegradable | – | – | – | –
34 | CCCCCCCCCCCCCCCCCCI | 383 | -5.72 | 34 | – | – | – | – | –
35 | O=C1CNC(=S)N1 | – | – | 230 | – | – | – | – | –
36 | CC(=O)OCCOCCOC(C)=O | 200 | – | 18 | – | – | – | – | –
37 | Cc1ccc(O)c(C)c1 | 211 | -0.991 | 24.5 | readily biodegradable | – | -6.02 | – | –
38 | COc1ccc(-c2cc(=O)c3c(O)cc(O)cc3o2)cc1 | – | – | 263 | – | – | – | – | –
39 | C=C | -104 | 4.72 | -169 | – | – | -0.642 | 0.28 | –
40 | CC(C)(C)CC(=O)O | 190 | – | 6.5 | – | – | – | – | –
41 | CCCCCCOC(C)=O | 172 | 0.122 | -80.9 | – | – | -3.28 | 4.58 | –
42 | CCCN(CCC)c1c([N+](=O)[O-])cc(C)cc1[N+](=O)[O-] | – | – | 80 | – | – | – | – | –

Row | SMILES | boiling point [°C] | log10 vapour pressure (mmHg) | melting point [°C] | ready biodegradability | log10 Koc (L/kg) | log10 Henry constant (atm·m³/mol) | log10 Koa | log10 biodegradation half-life (days)
43 | C=CCc1ccccc1O | 220 | – | -6 | readily biodegradable | – | – | – | –
44 | CC(C)(C)OC(=O)C(Cl)(Cl)Cl | – | – | 25.5 | – | – | – | – | –
45 | CCC(C)(CC(=O)O)CC(=O)O | 261 | – | 87 | – | – | – | – | –
46 | OCCOc1ccc2ccccc2c1 | – | – | 76.7 | – | – | – | – | –
47 | CCOC(=O)C(=O)Cl | 137 | 0.882 | – | – | – | – | – | –
48 | COC(=O)C(C)(C)C | 101 | – | – | – | – | -3.37 | – | –
49 | C1CCCCNCCC1 | – | – | -19 | – | – | – | – | –
50 | CC/C=C\C/C=C\C/C=C\CCCCCCCC(=O)O | – | -6.27 | -16.5 | readily biodegradable | – | – | – | –
51 | CN(C)[C@@H]1C(O)=C(C(N)=O)C(=O)[C@@]2(O)C(O)=C3C(=O)c4c(O)cccc4[C@@](C)(O)[C@H]3[C@H](O)[C@@H]12 | – | – | 184 | – | – | – | – | –
52 | BrC=CBr | 110 | 1.49 | -37.5 | not readily biodegradable | 1.65 | – | – | –
53 | O=S(=O)(O)c1ccc2c(O)cc(S(=O)(=O)O)cc2c1 | – | – | – | readily biodegradable | – | – | – | –
54 | CCC1CCc2ccccc2C1 (configuration not stated) | 235 | – | -42.8 | – | – | – | – | –
55 | Clc1ccc(Oc2cc(Cl)ccc2Cl)cc1 | – | -3.76 | – | – | – | – | – | –
56 | CCCCSCCCC | 185 | 0.0792 | -79.7 | – | – | – | – | –
57 | CC(C)C(C)(O)C(C)C | 156 | – | – | – | – | – | – | –
58 | C=CC(O)CCCCCC (configuration not stated) | 194 | – | – | – | – | – | – | –
59 | C#CC | -23.2 | 3.63 | -103 | – | – | – | – | –
60 | CC(=O)C1CCC1 | 138 | – | – | – | – | – | – | –
61 | O=C(O)c1ccccc1Oc1ccccc1 | 355 | – | 113 | – | – | – | – | –
62 | O=C(Nc1ccc(Cc2ccc(NC(=O)N3CC3)cc2)cc1)N1CC1 | – | – | – | not readily biodegradable | – | – | – | –
63 | CC(=O)OCCc1ccccc1 | 233 | -1.5 | -31.1 | – | 1.89 | – | – | –

Row | SMILES | boiling point [°C] | log10 vapour pressure (mmHg) | melting point [°C] | ready biodegradability | log10 Koc (L/kg) | log10 Henry constant (atm·m³/mol) | log10 Koa | log10 biodegradation half-life (days)
64 | O=C1C(Br)=CC(=NCl)C=C1Br | – | – | 83 | – | – | – | – | –
65 | N#Cc1ccc(N)cc1 | – | – | 84 | – | – | – | – | –
66 | CC1CC(OC(=O)C(O)c2ccccc2)CC(C)(C)N1C (configuration not stated) | – | – | 113 | – | – | – | – | –
67 | Clc1cc2c(cc1Cl)Oc1cc(Br)c(Br)cc1O2 | – | -8.33 | 316 | – | – | – | – | –
68 | CCCCCCCCCC(=O)OCC | 242 | – | -20 | – | – | – | – | –
69 | CCCOc1ccc([N+](=O)[O-])cc1N | – | – | 49 | – | – | – | – | –
70 | Nc1c(F)c(F)cc(F)c1F | 158 | – | 31.5 | – | – | – | – | –
71 | CC=CC(C)C | 58.8 | – | -130 | – | – | – | – | –
72 | O=C1CCOCC1 | 166 | – | – | – | – | – | – | –
73 | c1ccc2c(c1)CCCC2 | 208 | -0.434 | -35.7 | not readily biodegradable | – | – | – | 0.903
74 | c1ccc(Cc2ccccn2)cc1 | 277 | – | 12.5 | – | – | – | – | –
75 | CC(C)=CCC1C(=O)N(c2ccccc2)N(c2ccccc2)C1=O | – | – | 156 | – | – | – | – | –
76 | Cc1ccc2[nH]c(C)c(C)c2c1 | 297 | – | 122 | – | – | – | – | –
77 | CC(CCC(C)C)=NO | 196 | – | – | – | – | – | – | –
78 | CN(C)S(=O)N(C)C | 209 | – | 31 | – | – | – | – | –
79 | CCOC(=O)c1cccc(C(=O)OCC)c1 | 302 | – | 11.5 | – | – | – | – | –
80 | OC[C@@H]1CCCNC1 | – | – | 61 | – | – | – | – | –
81 | BrCC=Cc1ccccc1 | – | – | 34 | – | – | – | – | –
82 | CCCCCCc1ccc2c(c1)CCC2 | 292 | – | -34 | – | – | – | – | –
83 | CC(=O)Oc1cccnc1 | – | – | – | readily biodegradable | – | – | – | –
84 | CCCCCCCCC(N)=O | – | – | 99.5 | – | – | – | – | –

same assay, conditions: fish

Row | SMILES | log10 BCF | log10 biotransformation half-life (days)
85 | O=P(OCCCl)(OCCCl)OCCCl | 0.11 | -0.66
86 | Clc1ccc2ccccc2c1 | 3.63 | –
87 | O=C(O)Cc1cccc2ccccc12 | 0.47 | –
88 | Clc1ccc(Oc2ccc(Cl)cc2Cl)c(Cl)c1 | – | 2.28
89 | c1ccc2c(c1)CCCC2 | 2.53 | 0.75

Source: the OPERA property sets (Mansouri et al. 2018)
